Assay results reported in the NIST ThermoML archive (doi:10.1016/j.jct.2006.08.008).

What was measured:
[1] = mn = molality of the nth substance listed, in mol/kg; details: 350 kPa, Liquid
[2] = molar heat capacity at constant pressure; mn = molality of the nth substance listed, in mol/kg; details: 350 kPa, Liquid

N[C@@H](CCC(=O)O)C(=O)O [L-glutamic acid] + O
Details | mass density, m1 = 0.00249 [kg/m3] | mass density, m1 = 0.005 [kg/m3] | mass density, m1 = 0.00999 [kg/m3] | mass density, m1 = 0.01497 [kg/m3] | mass density, m1 = 0.02005 [kg/m3] | molar heat capacity at constant pressure, m1 = 0.00249 [J/K/mol] | molar heat capacity at constant pressure, m1 = 0.005 [J/K/mol] | molar heat capacity at constant pressure, m1 = 0.00999 [J/K/mol] | molar heat capacity at constant pressure, m1 = 0.01497 [J/K/mol] | molar heat capacity at constant pressure, m1 = 0.02005 [J/K/mol]
[1], 278.15 K | 1000.19 | 1000.25 | 1001.06 | 1000.93 | 1001.36 | – | – | – | – | –
[1], 283.15 K | 999.98 | 999.98 | 1000.74 | 1000.64 | 1001.07 | – | – | – | – | –
[1], 288.15 K | 999.38 | 999.38 | 1000.11 | 1000.03 | 1000.44 | – | – | – | – | –
[1], 298.15 K | 997.3 | 997.33 | 998.03 | 997.95 | 998.34 | – | – | – | – | –
[1], 308.15 K | 994.32 | 994.31 | 994.97 | 994.92 | 995.33 | – | – | – | – | –
[1], 318.15 K | 990.49 | 990.5 | 991.14 | 991.09 | 991.48 | – | – | – | – | –
[1], 328.15 K | 985.92 | 985.99 | 986.59 | 986.57 | 986.97 | – | – | – | – | –
[1], 338.15 K | 980.82 | 980.87 | 981.45 | 981.46 | 981.84 | – | – | – | – | –
[1], 348.15 K | 975.1 | 975.18 | 975.74 | 975.74 | 976.12 | – | – | – | – | –
[1], 358.15 K | 968.87 | 968.96 | 969.5 | 969.51 | 969.88 | – | – | – | – | –
[1], 368.15 K | 962.18 | 962.24 | 962.76 | 962.76 | 963.12 | – | – | – | – | –
[2], 278.15 K | – | – | – | – | – | 75.67 | 75.7 | 75.73 | 75.73 | 75.74
[2], 283.15 K | – | – | – | – | – | 75.5 | 75.53 | 75.55 | 75.56 | 75.57
[2], 288.15 K | – | – | – | – | – | 75.39 | 75.41 | 75.44 | 75.45 | 75.46
[2], 293.15 K | – | – | – | – | – | 75.32 | 75.34 | 75.36 | 75.38 | 75.38
[2], 298.15 K | – | – | – | – | – | 75.27 | 75.29 | 75.31 | 75.33 | 75.33
[2], 303.15 K | – | – | – | – | – | 75.24 | 75.27 | 75.28 | 75.3 | 75.3
[2], 308.15 K | – | – | – | – | – | 75.23 | 75.25 | 75.27 | 75.29 | 75.29
[2], 313.15 K | – | – | – | – | – | 75.23 | 75.25 | 75.27 | 75.28 | 75.29
[2], 318.15 K | – | – | – | – | – | 75.24 | 75.27 | 75.28 | 75.3 | 75.31
[2], 323.15 K | – | – | – | – | – | 75.27 | 75.29 | 75.3 | 75.32 | 75.33
[2], 328.15 K | – | – | – | – | – | 75.3 | 75.32 | 75.34 | 75.35 | 75.36
[2], 333.15 K | – | – | – | – | – | 75.34 | 75.36 | 75.38 | 75.39 | 75.4
[2], 338.15 K | – | – | – | – | – | 75.39 | 75.41 | 75.43 | 75.44 | 75.45
[2], 343.15 K | – | – | – | – | – | 75.45 | 75.47 | 75.48 | 75.5 | 75.51
[2], 348.15 K | – | – | – | – | – | 75.51 | 75.54 | 75.55 | 75.57 | 75.58
[2], 353.15 K | – | – | – | – | – | 75.58 | 75.61 | 75.62 | 75.64 | 75.65
[2], 358.15 K | – | – | – | – | – | 75.66 | 75.69 | 75.7 | 75.72 | 75.73
[2], 363.15 K | – | – | – | – | – | 75.75 | 75.78 | 75.79 | 75.81 | 75.82
[2], 368.15 K | – | – | – | – | – | 75.85 | 75.87 | 75.88 | 75.91 | 75.91
[2], 373.15 K | – | – | – | – | – | 75.95 | 75.98 | 75.99 | 76.01 | 76.02
[2], 378.15 K | – | – | – | – | – | 76.06 | 76.09 | 76.1 | 76.13 | 76.13
[2], 383.15 K | – | – | – | – | – | 76.18 | 76.21 | 76.22 | 76.25 | 76.25
[2], 388.15 K | – | – | – | – | – | 76.32 | 76.34 | 76.35 | 76.38 | 76.38
[2], 393.15 K | – | – | – | – | – | 76.46 | 76.48 | 76.49 | 76.53 | 76.51
